Measured values: patent publication EP0429333B1, “Process for producing oxazopyrroloquinolines, novel oxazopyrroloquinolines, and use of oxazopyrroloquinolines” (priority 1989, dated 1991)

System: T cell
Assay: Test on T cell blast transformation reaction (2), compound added to spleen cell culture
Assay type: cell-based, C3H/He mice
Conditions: for Relative activity (%): Concanavalin A 1.0 µg/ml, without compound = 100
Protocol: Cells of spleen were obtained in the same manner as in Example 38 except that OPQ was not administered using five C3H/He mice (male, 7 weeks old, average body weight of 20 g, supplied by Japan Charles Liver Co.).
Then, the cells were suspended in RPMI medium at 4 x 10^6 cells/ml and the suspension was put in a flat bottom microplate of 96 holes. Culture was carried out in the air containing 5 % of CO2 at 37°C using 1.0 µg/ml of concanavalin A as mitogen with addition of 0.5 or 2.0 µg/ml of OPQ. After 63 hours from starting of culture, ^3H-thymidine was added at 2.5 µCi/ml and culture was carried out for further 9 hours. Thereafter, cells were gathered on a glass fiber filter by cell harvester and ^3H on the filter was measured by a liquid scintillation counter.
As control, same four cultures were conducted under respective conditions without adding concanavalin A or OPQ. Values in the table are average values of intake amount (cpm) of ^3H in culture under four same conditions. Activity acceleration effect of OPQ was not recognized when concanavalin A was not added, but activity acceleration effect of OPQ was recognized when concanavalin A was added.
In Examples 36 - 40, macrophage activity was examined according to chemotaxis of peritoneal macrophage (literature 1) and activity of T cell and that of B cell were examined according to blast transformation reaction using concanavalin A and lipopolysaccharide, (LPS) as mitogen (literature 2). Literature 1: "Function of Macrophage and Method of Measurement of Function", pages 61-65 1985), edited by Educational Committee of Japan Bacteriological Society and published from Saikon Shuppan Co.) Literature 2: "New Method of Searching of Function of Lymphocytes", pages 350-355 (1987) edited by Junichi Yada and Michio Fujiwara and published from Chugai Igaku Co.

With `O=C(O)c1cc(C(=O)O)c2c(n1)c1ncoc1c1cc(C(=O)O)[nH]c12` [OPQ, oxazopyrroloquinoline] the “Relative activity (%)” value (0.5 µg/ml added to culture) was 146%, the “intake amount (cpm) of ^3H” value (0.5 µg/ml added to culture, concanavalin 0 µg/ml, without compound 2077) was 1946 cpm and the “intake amount (cpm) of ^3H” value (0.5 µg/ml added to culture, concanavalin 1.0 µg/ml, without compound 89091) was 130775 cpm. The “Relative activity (%)” value (2.0 µg/ml added to culture) was 130%, the “intake amount (cpm) of ^3H” value (2.0 µg/ml added to culture, concanavalin 0 µg/ml, without compound 2077) was 2031 cpm and the “intake amount (cpm) of ^3H” value (2.0 µg/ml added to culture, concanavalin 1.0 µg/ml, without compound 89091) was 116093 cpm.
